Source: US10925874B2, “Substituted pyrazolopyrimidines as glucocerebrosidase activators” (The United States of America, as Represented by the …, priority 2010, dated 2021)

Target: T1, N370S glucocerebrosidase from human spleen homogenate (Homo sapiens, UniProt P04062, N409S)
T1 construct: N370S glucocerebrosidase from human spleen homogenate as the enzyme preparation; from tissue; host or cells: human spleen homogenate
T1 sequence (P04062 40-536 N409S): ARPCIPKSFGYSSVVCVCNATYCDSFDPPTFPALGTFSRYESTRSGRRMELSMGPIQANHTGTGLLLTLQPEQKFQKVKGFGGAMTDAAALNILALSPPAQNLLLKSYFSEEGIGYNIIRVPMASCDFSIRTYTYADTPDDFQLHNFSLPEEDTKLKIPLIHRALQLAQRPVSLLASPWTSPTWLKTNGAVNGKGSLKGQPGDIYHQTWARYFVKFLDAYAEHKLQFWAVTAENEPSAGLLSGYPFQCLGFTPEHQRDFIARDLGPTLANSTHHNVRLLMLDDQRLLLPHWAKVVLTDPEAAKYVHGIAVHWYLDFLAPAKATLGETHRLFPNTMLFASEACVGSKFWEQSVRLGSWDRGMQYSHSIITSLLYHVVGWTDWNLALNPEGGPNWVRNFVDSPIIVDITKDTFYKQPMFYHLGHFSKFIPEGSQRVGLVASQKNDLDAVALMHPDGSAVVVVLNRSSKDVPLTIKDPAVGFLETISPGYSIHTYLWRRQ
Assay: qHTS fluorogenic enzyme assay for activators of N370S glucocerebrosidase (4-methylumbelliferyl-beta-D-glucopyranoside substrate)
Type: biochemical
Conditions: pH 5.0, 37° C. 40 min
Excerpt: qHTS Assay for Inhibitors and Activators of N370S glucocerebrosidase as a Potential Chaperone Treatment of Gaucher Disease: Primary Screen Confirmation
This is a fluorogenic enzyme assay with 4-methylumbelliferyl-beta-D-glucopyranoside as the substrate and N370S glucocerebrosidase from human spleen homogenate as the enzyme preparation. Upon the hydrolysis of this fluorogenic substrate, the resulting product, […] which can be detected by a standard fluorescence plate reader. Data were normalized to the controls for basal activity (without enzyme) and 100% activity (with enzyme). The AC50 values were determined from concentration-response data modeled with the standard Hill equation.
Human spleen homogenate is prepared as follows by homogenizing spleen with assay buffer containing 50 mM citric acid (titrated with potassium phosphate to pH 5.0), 100 mM potassium chloride, 10 mM sodium chloride, 1 mM magnesium chloride, 0.01% Tween-20. The protein concentration of the human spleen homogenate is approximated 1.35 ug/ul.
The assay is performed in 1536 well plates according to the following protocol. (1) 2 ul spleen homogenate ([…] final) is added to each well. (2) 23 nL test compound in DMSO solution is added to each well. The final concentration of compound in the test well is 0.5 nM to 58 uM. (3) 2 ul of substrate (1 mM final) are added to each well. (4) Incubate assay plates at 37° C. for 40 min. (5) Add 2 ul stop solution (1M NaOH and 1M Glycine mixture, pH 10) to each well. (6) Detect the assay plate in a ViewLux plate reader (PerkinElmer) using 365 nm excitation with emission at 440 nm.

| SMILES | AC50 [µM] |
| --- | --- |
| O=C(Nc1cnn(Cc2ccc(F)cc2)c1)c1cnn2c(C(F)F)cc(-c3ccccc3)nc12 [MLS000662187-01, 7-(difluoromethyl)-N-(1-(4-fluorobenzyl)-1H-pyrazol-4-yl)-5-phenylpyrazolo[1,5-a]pyrimidine-3-carboxamide] | 3.26 |
| CCC(C)c1ccc(NC(=O)c2cnn3c(C(F)F)cc(C)nc23)cc1 (stereo not drawn) [MLS000662237-01, N-(4-sec-butylphenyl)-7-(difluoromethyl)-5-methylpyrazolo[1,5-a]pyrimidine-3-carboxamide] | 5.01 |
| CCc1ccc(NC(=O)c2cnn3c(C(F)F)cc(C)nc23)cc1 [MLS000708974-01, 7-(difluoromethyl)-N-(4-ethylphenyl)-5-methylpyrazolo[1,5-a]pyrimidine-3-carboxamide] | 2.24 |
| Cc1cc(C)n2ncc(C(=O)Nc3ccc(Cl)c(Cl)c3)c2n1 [MLS000765493-01, N-(3,4-dichlorophenyl)-5,7-dimethylpyrazolo[1,5-a]pyrimidine-3-carboxamide] | 7.08 |
| Cc1cc(C)n2ncc(C(=O)Nc3ccc4c(c3)OCO4)c2n1 [NCGC00054856-02, N-(benzo[d][1,3]dioxol-5-yl)-5,7-dimethylpyrazolo[1,5-a]pyrimidine-3-carboxamide] | 6.51 |
| COC(=O)c1ccccc1NC(=O)c1cnn2c1NC(=C1CC1)C=C2C(F)F [NCGC00182132-01, methyl 2-(5-cyclopropylidene-7-(difluoromethyl)-4,5-dihydropyrazolo[1,5-a]pyrimidine-3-carboxamido)benzoate] | 15.8 |
| Cc1ccc(NC(=O)c2cnn3c2NC(=C2CC2)C=C3C(F)F)cc1C [NCGC00182133-01, 5-cyclopropylidene-7-(difluoromethyl)-N-(3,4-dimethylphenyl)-4,5-dihydropyrazolo[1,5-a]pyrimidine-3-carboxamide] | 3.16 |
| Cc1cccc(NC(=O)c2cnn3c2NC(=C2CC2)C=C3C(F)F)n1 [NCGC00182139-01, 5-cyclopropylidene-7-(difluoromethyl)-N-(6-methylpyridin-2-yl)-4,5-dihydropyrazolo[1,5-a]pyrimidine-3-carboxamide] | 12.6 |
| C=C1C=C(C(F)F)n2ncc(C(=O)Nc3ccc(C(C)CC)cc3)c2N1 (stereo not drawn) [NCGC00182141-01, N-(4-sec-butylphenyl)-7-(difluoromethyl)-5-methylene-4,5-dihydropyrazolo[1,5-a]pyrimidine-3-carboxamide] | 2.51 |
| C=C1C=C(C(F)F)n2ncc(C(=O)Nc3cccc(CC)c3)c2N1 [NCGC00182142-01, 7-(difluoromethyl)-N-(3-ethylphenyl)-5-methylene-4,5-dihydropyrazolo[1,5-a]pyrimidine-3-carboxamide] | 10 |
| C=C1C=C(C(F)F)n2ncc(C(=O)N3CCN(c4ccccn4)CC3)c2N1 [NCGC00182144-01, (7-(difluoromethyl)-5-methylene-4,5-dihydropyrazolo[1,5-a]pyrimidin-3-yl)(4-(pyridin-2-yl)piperazin-1-yl)methanone] | 35.5 |
| C=C1C=C(C(F)F)n2ncc(C(=O)NC(C)CC)c2N1 (stereo not drawn) [NCGC00182145-01, N-sec-butyl-7-(difluoromethyl)-5-methylene-4,5-dihydropyrazolo[1,5-a]pyrimidine-3-carboxamide] | 31.6 |
| C=C1C=C(C(F)F)n2ncc(C(=O)NCc3ccc(Cl)cc3Cl)c2N1 [NCGC00182146-01, N-(2,4-dichlorobenzyl)-7-(difluoromethyl)-5-methylene-4,5-dihydropyrazolo[1,5-a]pyrimidine-3-carboxamide] | 10 |
| C=C1C=C(C(F)F)n2ncc(C(=O)NCCc3ccccc3OC)c2N1 [NCGC00182147-01, 7-(difluoromethyl)-N-(2-methoxyphenethyl)-5-methylene-4,5-dihydropyrazolo[1,5-a]pyrimidine-3-carboxamide] | 25.1 |
| C=C1C=C(C(F)F)n2ncc(C(=O)NCc3ccccc3Cl)c2N1 [NCGC00182148-01, N-(2-chlorobenzyl)-7-(difluoromethyl)-5-methylene-4,5-dihydropyrazolo[1,5-a]pyrimidine-3-carboxamide] | 14.1 |
| C=C1C=C(C(F)F)n2ncc(C(=O)NCCc3ccccc3Cl)c2N1 [NCGC00182151-01, N-(2-chlorophenethyl)-7-(difluoromethyl)-5-methylene-4,5-dihydropyrazolo[1,5-a]pyrimidine-3-carboxamide] | 31.6 |
| C=C1C=C(C(F)F)n2ncc(C(=O)N3CCN(c4ccccc4)CC3)c2N1 [NCGC00182152-01, (7-(difluoromethyl)-5-methylene-4,5-dihydropyrazolo[1,5-a]pyrimidin-3-yl)(4-phenylpiperazin-1-yl)methanone] | 31.6 |
| C=C1C=C(C(F)F)n2ncc(C(=O)Nc3ccc(N(CC)CC)cc3)c2N1 [NCGC00182154-01, N-(4-(diethylamino)phenyl)-7-(difluoromethyl)-5-methylene-4,5-dihydropyrazolo[1,5-a]pyrimidine-3-carboxamide] | 11.2 |
| C=C1C=C(C(F)F)n2ncc(C(=O)NCCc3ccc(Cl)cc3)c2N1 [NCGC00182159-01, N-(4-chlorophenethyl)-7-(difluoromethyl)-5-methylene-4,5-dihydropyrazolo[1,5-a]pyrimidine-3-carboxamide] | 15.8 |
| C=C1C=C(C(F)F)n2ncc(C(=O)Nc3ccccc3OCC)c2N1 [NCGC00182160-01, 7-(difluoromethyl)-N-(2-ethoxyphenyl)-5-methylene-4,5-dihydropyrazolo[1,5-a]pyrimidine-3-carboxamide] | 2.51 |
| C=C1C=C(C(F)F)n2ncc(C(=O)NCc3ccccc3C(F)(F)F)c2N1 [NCGC00182161-01, 7-(difluoromethyl)-5-methylene-N-(2-(trifluoromethyl)benzyl)-4,5-dihdyropyrazolo[1,5-a]pyrimidine-3-carboxamide] | 15.8 |
| C=C1C=C(C(F)F)n2ncc(C(=O)NCc3ccccc3OC)c2N1 [NCGC00182162-01, 7-(difluoromethyl)-N-(2-methoxybenzyl)-5-methylene-4,5-dihydropyrazolo[1,5-a]pyrimidine-3-carboxamide] | 14.1 |
| C=C1C=C(C)n2ncc(C(=O)Nc3ccccc3C(=O)OC)c2N1 [NCGC00182165-01, methyl 2-(7-methyl-5-methylene-4,5-dihydropyrazolo[1,5-a]pyrimidine-3-carboxamido)benzoate] | 10 |
| C=C1C=C(C)n2ncc(C(=O)Nc3ccc(F)cc3F)c2N1 [NCGC00182166-01, N-(2,4-difluorophenyl)-7-methyl-5-methylene-4,5-dihydropyrazolo[1,5-a]pyrimidine-3-carboxamide] | 3.98 |
| O=C(Nc1ccc2c(c1)OCCO2)c1cnn2c1NC(=C1CC1)C=C2C(F)F [NCGC00182167-01, 5-cyclopropylidene-7-(difluoromethyl)-N-(2,3-dihydrobenzo[b][1,4]dioxin-6-yl)-4,5-dihydropyrazolo[1,5-a]pyrimidine-3-carboxmaide] | 8.91 |
| O=C(NC1CCCC1)c1cnn2c1NC(=C1CC1)C=C2C(F)F [NCGC00182170-01, N-cyclopentyl-5-cyclopropylidene-7-(difluoromethyl)-4,5-dihydropyrazolo[1,5-a]pyrimidine-3-carboxamide] | 12.6 |
| O=C(Nc1cc(F)ccc1F)c1cnn2c1NC(=C1CC1)C=C2C(F)F [NCGC00182172-01, 5-cyclopropylidene-7-(difluoromethyl)-N-(2,5-difluorophenyl)-4,5-dihydropyrazolo[1,5-a]pyrimidine-3-carboxamide] | 3.16 |
| O=C(Nc1ccc2c(c1)CCC2)c1cnn2c1NC(=C1CC1)C=C2C(F)F [NCGC00182174-01, 5-cyclopropylidene-7-(difluoromethyl)-N-(2,3-dihydro-1H-inden-5-yl)-4,5-dihydropyrazolo[1,5-a]pyrimidine-3-carboxamide] | 3.98 |
| O=C(NC1CCCCC1)c1cnn2c1NC(=C1CC1)C=C2C(F)F [NCGC00182175-01, N-cyclohexyl-5-cyclopropylidene-7-(difluoromethyl)-4,5-dihydropyrazolo[1,5-a]pyrimidine-3-carboxamide] | 12.6 |
| O=C(NC1CCCc2ccccc21)c1cnn2c1NC(=C1CC1)C=C2C(F)F (stereo not drawn) [NCGC00182176-01, 5-cyclopropylidene-7-(difluoromethyl)-N-(1,2,3,4-tetrahydronaphthalen-1-yl)-4,5-dihydropyrazolo[1,5-a]pyrimidine-3-carboxamide] | 14.3 |
